In US9512107B2, “Therapeutically active compositions and their methods of use” (Agios Pharmaceuticals, Inc., priority 2012, dated 2016):
Where a chain is given by its changes, count along the chain named.

Columns and labels:
IDH2 R140Q = molecular target: T1, IDH2 R140Q (Homo sapiens, UniProt P48735, R140Q); experiment: IDH2 R140Q enzymatic assay (cofactor depletion, similar format); assay type: biochemical; conditions: read-out: Enz R140Q
T1 sequence (P48735 40-452 R140Q): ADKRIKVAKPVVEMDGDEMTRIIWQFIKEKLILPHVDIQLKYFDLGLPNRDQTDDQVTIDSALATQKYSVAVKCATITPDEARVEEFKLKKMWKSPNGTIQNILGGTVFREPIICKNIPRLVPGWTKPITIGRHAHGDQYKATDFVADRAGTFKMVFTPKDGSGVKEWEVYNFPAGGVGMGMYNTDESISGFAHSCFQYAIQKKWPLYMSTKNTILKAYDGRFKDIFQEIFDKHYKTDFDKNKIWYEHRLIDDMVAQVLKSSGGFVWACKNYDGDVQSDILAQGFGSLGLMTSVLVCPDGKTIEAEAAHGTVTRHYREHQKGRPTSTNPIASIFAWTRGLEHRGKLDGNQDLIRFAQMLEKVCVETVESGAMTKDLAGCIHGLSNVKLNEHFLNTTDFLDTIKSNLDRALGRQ

[1] = tested on: U87MG pLVX-IDH2 R140Q-neo cells; experiment: U87MG pLVX-IDH2 R140Q-neo cell based assay, 2-HG in media by LC-MS at 48 hours; conditions: Homo sapiens, U-87 MG
In short: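 2-HG secreted into the medium was measured by LC-MS after 48 h of compound treatment (0.2% DMSO final) of U87MG pLVX-IDH2 R140Q-neo cells in DMEM/10% FBS. The same wells were assayed at 72 h by CellTiter-Glo luminescence for effects on growth.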

IDH2 R172K = molecular target: T2, IDH2 R172K (Homo sapiens, UniProt P48735, R172K); experiment: IDH2 R172K enzymatic assay (NADPH cofactor depletion, diaphorase/resazurin readout); assay type: biochemical; conditions: read-out: Enz R172K
T2 sequence (P48735 40-452 R172K): T1 sequence (P48735 40-452 R140Q) with Q101R, R133K
In short: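 Cofactor depletion format: enzyme + compound 1 h RT; add substrate mix (50 μM NADPH, 6.3 mM α-KG); react 1 h RT; quench with stop mix (36 μg/ml diaphorase, 60 μM resazurin); read resorufin fluorescence as residual NADPH.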

Compound | IC50 (IDH2 R140Q) [nM] | IC50 [1] [nM] | IC50 (IDH2 R172K) [nM]
CC(C)(C)Nc1nc(Nc2cc(F)cc(F)c2)nc(-c2nccc(N)n2)n1 [Compound 479, 6-(4-Amino-pyrimidin-2-yl)-N-tert-butyl-N′-(3,5-difluoro-phenyl)-[1,3,5]triazine-2,4-diamine] | 100 to 1000 | < 100 | 100 to 1000
Nc1ccnc(-c2nc(NCC(F)(F)F)nc(Nc3cc(F)cc(F)c3)n2)n1 [Compound 480, 6-(4-Amino-pyrimidin-2-yl)-N-(3,5-difluoro-phenyl)-N′-(2,2,2-trifluoro-ethyl)-[1,3,5]triazine-2,4-diamine] | 100 to 1000 | < 100 | 100 to 1000
CC(C)Nc1nc(Nc2cc(F)cc(F)c2)nc(-c2nc(N)cc(C(F)(F)F)n2)n1 [Compound 481, 6-(4-amino-6-(trifluoromethyl)pyrimidin-2-yl)-N2-(3,5-difluorophenyl)-N4-isopropyl-1,3,5-triazine-2,4-diamine] | 100 to 1000 | < 100 | < 100
CC(C)Nc1nc(Nc2cc(F)cc(F)c2)nc(-c2ccnc(N)n2)n1 [Compound 482, 6-(2-Amino-pyrimidin-4-yl)-N-(3,5-difluoro-phenyl)-N′-isopropyl-[1,3,5]triazine-2,4-diamine] | 100 to 1000 | < 100 | < 100
CC(C)Nc1nc(Nc2cccc(S(C)(=O)=O)c2)nc(-c2cc(Cl)cc(Cl)n2)n1 [Compound 483, 6-(4,6-dichloropyridin-2-yl)-N2-isopropyl-N4-(3-(methylsulfonyl)phenyl)-1,3,5-triazine-2,4-diamine] | 100 to 1000 | 100 to 1000 | 1000 to 10000
CC(C)Nc1nc(Nc2cccc(S(C)(=O)=O)c2)nc(-c2nc(C(F)(F)F)ccc2F)n1 [Compound 484, 6-(3-fluoro-6-(trifluoromethyl)pyridin-2-yl)-N2-isopropyl-N4-(3-(methylsulfonyl)phenyl)-1,3,5-triazine-2,4-diamine] | 100 to 1000 | < 100 | 100 to 1000
CC(C)Nc1nc(Nc2cc(F)cc(F)c2)nc(-c2cc(Cl)cc(N)n2)n1 [Compound 485, 6-(6-amino-4-chloropyridin-2-yl)-N^2-(3,5-difluorophenyl)-N^4-isopropyl-1,3,5-triazine-2,4-diamine] | 100 to 1000 | < 100 | 100 to 1000
Nc1cccc(-c2nc(NCC(F)(F)F)nc(Nc3cc(F)cc(F)c3)n2)n1 [Compound 491, 6-(6-aminopyridin-2-yl)-N2-(3,5-difluorophenyl)-N4-(2,2,2-trifluoroethyl)-1,3,5-triazine-2,4-diamine] | 100 to 1000 | < 100 | < 100
CC(C)Nc1nc(Nc2cccc(F)c2)nc(-c2cccc(N)n2)n1 [Compound 492, 6-(6-aminopyridin-2-yl)-N2-(3-fluorophenyl)-N4-isopropyl-1,3,5-triazine-2,4-diamine] | 100 to 1000 | < 100 | < 100
CC(C)(CO)CNc1nc(Nc2ccnc(C(F)(F)F)c2)nc(-c2cccc(Cl)n2)n1 [Compound 495, 3-[4-(6-Chloro-pyridin-2-yl)-6-(2-trifluoromethyl-pyridin-4-ylamino)-[1,3,5]triazin-2-ylamino]-2,2-dimethyl-propan-1-ol] | 100 to 1000 | < 100 | < 100
CC(C)Nc1nc(Nc2ccnc(C(C)(C)O)c2)nc(-c2cccc(C(F)(F)F)n2)n1 [Compound 496, 2-{4-[4-Isopropylamino-6-(6-trifluoromethyl-pyridin-2-yl)-[1,3,5]triazin-2-ylamino]-pyridin-2-yl}-propan-2-ol] | 100 to 1000 | < 100 | < 100
CC(C)Nc1nc(Nc2cccc(S(=O)(=O)NCC3CC3)c2)nc(-c2cccc(Cl)n2)n1 [Compound 497, 3-[4-(6-Chloro-pyridin-2-yl)-6-isopropylamino-[1,3,5]triazin-2-ylamino]-N-cyclopropylmethyl-benzenesulfonamide] | 100 to 1000 | < 100 | 100 to 1000
